# According to PMC7969469 (Cancer research, 2021):
# Test system: invadopodia formation
# Test: Invadopodia formation with ROCK inhibitor
# Type: cell-based
# Conditions: ROCK inhibition, Supplementary Figure S6C
smiles,measurement,value
O=S(=O)(c1cccc2cnccc12)N1CCCNCC1 [Fasudil],effect on invadopodia formation,affected neither
